Laboratory results: US9120779B2, “Inhibitors of HCV NS5A” (PRESIDIO PHARMACEUTICALS, INC., priority 2008, dated 2015)
Like-named read-outs stand apart in the source and are kept apart here.

Tested on: HCV genotype 1b replicon in Huh 7 cells
Test: HCV replicon assay (luciferase readout, 1b_Huh-Luc/Neo-ET cell line)
Assay type: cell-based
Settings: Hepatitis C virus, Huh-7, 72 h
Summary of the method: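 Inhibition expressed as percent of untreated control luciferase signal and fitted to a Hill-slope equation for EC50, with repeat determinations. Compounds were added in triplicate to Huh 7 cells stably expressing the genotype 1b luciferase replicon, with 72 h exposure.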

[1] = read-out: Inhibition of HCV genotype 1b, Table 1, 72 h incubation
[2] = read-out: Inhibition of HCV genotype 1b, Table 3, 72 h incubation
[3] = read-out: Inhibition of HCV genotype 1b, Table 5, 72 h incubation

| Compound | EC50 [1] | EC50 [3] | also measured |
| --- | --- | --- | --- |
| COC(=O)N[C@@H](C(=O)N1CCC[C@H]1c1ncc(-c2ccc([C@H]3CC[C@@H](NC(=O)[C@@H]4CCCN4C(=O)[C@H](NC(=O)N4CCOCC4)c4ccccc4)CC3)cc2)[nH]1)c1ccccc1 [compound 370] | 1 to 9.9 nM |  |  |
| COC(=O)N[C@H](C(=O)N1CCC[C@H]1c1ncc([C@H]2CC[C@H](c3ccc(-c4cnc([C@@H]5CCCN5C(=O)[C@H](NC(=O)OC)c5ccccc5)[nH]4)cc3)CC2)[nH]1)C(C)C [compound 2002] | < 1 nM |  |  |
| COC(=O)N[C@@H](C(=O)N1CCC[C@H]1c1ncc(-c2cc(F)c(N3CCC(c4cnc([C@@H]5CCCN5C(=O)[C@H](NS(C)(=O)=O)c5ccccc5)[nH]4)CC3)c(F)c2)[nH]1)c1ccccc1 [compound 474] |  |  | EC50 [2]: < 1 nM |
| COC(=O)N[C@@H](C(=O)N[C@@H](C)c1ncc(C23CCC(c4ccc(-c5cnc([C@@H]6CCCN6C(=O)[C@H](NC(=O)OC)c6ccccc6)[nH]5)cc4)(CC2)CC3)[nH]1)c1ccccc1 [compound 2098] |  | < 1 nM |  |
| COC(=O)N[C@@H](C(=O)N1CCC[C@H]1c1ncc(-c2cc(F)c(N3CCC(c4cnc([C@@H]5CCCCN5C(=O)[C@@H](c5ccccc5)N5CCCCC5)[nH]4)CC3)c(F)c2)[nH]1)c1ccccc1 [compound 496] |  |  | EC50 [2]: < 1 nM |
| COC(=O)N[C@H](C(=O)N1CCC[C@H]1c1nc2ccc(-c3ccc(-c4ccc5nc([C@@H]6CCCN6C(=O)[C@@H](c6ccccc6)N(C)C)[nH]c5c4)cc3)cc2[nH]1)C(C)C [compound 2038] |  |  | EC50 (read-out: Inhibition of HCV genotype 1b, Table 4, 72 h incubation): < 1 nM |
| COC(=O)N[C@H](C(=O)N1CCC[C@H]1c1ncc(C23CCC(c4ccc(-c5cnc([C@@H]6CCCN6C(=O)[C@H](C(C)C)N(C)C)[nH]5)cc4)(CC2)CC3)[nH]1)C(C)C [compound 2077] |  | < 1 nM |  |
| CCNC(=O)N[C@H](C(=O)N1CCC[C@H]1c1ncc(-c2ccc(C34CCC(c5cnc([C@@H]6CCCN6C(=O)[C@@H](NC(=O)OC)C(C)C)[nH]5)(CC3)CC4)cc2)[nH]1)C(C)C [compound 2096] |  | < 1 nM |  |
| COC(=O)N[C@@H](C(=O)N1CCC[C@H]1c1ncc(C2CCC(c3ccc(-c4cnc([C@@H]5CCCN5C(=O)[C@@H](c5ccccc5)N(C)C)[nH]4)cc3)CC2)[nH]1)c1ccccc1 (stereo partly shown) [compound 377] | < 1 nM |  |  |
| O=C(N[C@H]1CC[C@H](c2ccc(-c3cnc([C@@H]4CCCN4C(=O)[C@H](NC(=O)N4CCOCC4)c4ccccc4)[nH]3)cc2)CC1)[C@@H]1CCCN1C(=O)[C@H](NC(=O)N1CCOCC1)c1ccccc1 [compound 354] | 1 to 9.9 nM |  |  |
| COC(=O)N[C@H](C(=O)N1CCC[C@H]1c1ncc(C23CCC(c4ccc(-c5cnc([C@@H]6CCCN6C(=O)[C@H](NC6CCOCC6)c6ccccc6)[nH]5)cc4)(CC2)CC3)[nH]1)C(C)C [compound 2068] |  | < 1 nM |  |
| CC(C)(C)OC(=O)N[C@H](C(=O)N1CCC[C@H]1c1ncc(-c2ccc(C34CCC(c5cnc([C@@H]6CCCN6C(=O)[C@H](NC(=O)OC(C)(C)C)c6ccccc6)[nH]5)(CC3)CC4)cc2)[nH]1)c1ccccc1 [compound 601] |  | < 1 nM |  |
| O=C(N[C@H]1CC[C@H](c2cccc(-c3cnc([C@@H]4CCCN4C(=O)[C@H](NC(=O)N4CCOCC4)c4ccccc4)[nH]3)c2)CC1)[C@@H]1CCCN1C(=O)[C@H](NC(=O)N1CCOCC1)c1ccccc1 [compound 364] | 1 to 9.9 nM |  |  |
| COC(=O)N[C@H](C(=O)N1CCC[C@H]1c1ncc(-c2ccc(C34CCC(c5cnc([C@@H]6CCCN6C(=O)[C@@H](Nc6ncccn6)C(C)C)[nH]5)(CC3)CC4)cc2)[nH]1)C(C)C [compound 918] |  | < 1 nM |  |
| COC(=O)N[C@@H](C(=O)N1CCC[C@H]1c1ncc(-c2ccc(C34CCC(c5cnc([C@@H]6CCCN6C(=O)[C@@H](NC(=O)N6CCOCC6)C(C)C)[nH]5)(CC3)CC4)cc2)[nH]1)c1ccccc1 [compound 2052] |  | < 1 nM |  |
| COC(=O)N[C@H](C(=O)N1CCC[C@H]1c1ncc(C2CCN(c3c(F)cc(-c4cnc([C@@H]5CCCN5C(=O)[C@H](NC(=O)OC)c5ccccc5)[nH]4)cc3F)CC2)[nH]1)C(C)C [compound 490] |  |  | EC50 [2]: < 1 nM |
